# Data taken from patent US20140256555A1, “METHODS FOR TREATING FLOWERING PLANTS WITH RIBOSE” (RiboCor, Inc., priority 2013, published 2014).
# What was measured:
# [1] = tested on: Purple Waffle; assay: Growth of Purple Waffle plants over a 9 month period with weekly feeding; assay type: in vivo; details: 1× (1.5 mg/ml) or 2× (3 mg/ml) D-ribose weekly, versus control and MIRACLE-GRO fed plant
# Procedure: The growth of four plants was observed over a 9 month period. One plant was not fed (control), but watered weekly. One plant was fed MIRACLE-GRO liquid plant food weekly based on product instructions of feeding every time you water by squeezing 10-20 drops into 1 quart of water. One plant was fed 1× (1.5 mg/ml) D-ribose weekly. One plant was fed 2× (3 mg/ml) D-ribose weekly.
# [2] = tested on: Orchids; assay: Watering with D-ribose solution, blooming of orchids; assay type: in vivo; details: 5 grams of D-ribose to one gallon of water
# Text: (§1) Plants treated with a solution of D-ribose in this example included Orchids, Christmas Cactus, Palm, Mother's-in-law Tongue/Snake Plant, Rosemary, Bamboo, Pothos, Hibiscus, Jade, Purple Passion, Aloe vera, Schefflera, Cacti, and Norfolk Island Pine.
# (§2) The use of MIRACLE-GRO liquid plant food was stopped, then the use of a solution of D-ribose to treat the plants was started. Each week a fresh solution of D-ribose was made using 5 grams of D-ribose to one gallon of water.
# The first subject was an orchid which had not bloomed in six plus years.
# [3] = tested on: Christmas Cactus; assay: Watering with D-ribose solution, blooming of Christmas Cactus; assay type: in vivo; details: typically blooms only around Christmas and Easter; 5 grams of D-ribose to one gallon of water
# Text: as §1, §2
# This variety of plant typically only blooms around the Christmas and Easter holidays each year for a few weeks up to a month or so, then it stops blooming.
# [4] = tested on: Snake Plant; assay: Watering with D-ribose solution, blooming of Snake Plant; assay type: in vivo, Mother's-in-law Tongue/Snake Plant; details: had not bloomed in over 15 years, indoor plant; 5 grams of D-ribose to one gallon of water
# Text: as §1, §2
# This is another example of plant typically regarded as a non-flowering type plant. […] It had not bloomed in over 15 years. While flowers on this plant are not unheard of, it is uncommon to bloom in the Minnesota climate and as an indoor plant.
# [5] = tested on: Palm; assay: Watering with D-ribose solution, blooming of Palm; assay type: in vivo; details: plant had not bloomed in approximately fifteen years; 5 grams of D-ribose to one gallon of water
# Text: as §1, §2
# This is typically regarded as a non-flowering type of plant. This plant had not bloomed in approximately fifteen years.
# [6] = tested on: flowering plants; assay: Watering of house plants with D-ribose solution, observation of blooming; assay type: in vivo; details: 5 grams of D-ribose to one gallon of water, after MIRACLE-GRO was stopped
# Text: as §1, §2
# Specific observations are noted below. While all the plants were extremely healthy and grew exceptionally well, traditional flowering varieties performed amazingly well.
# [7] = tested on: Hibiscus; assay: Watering with D-ribose solution, blooming of Hibiscus; assay type: in vivo; details: indoors for the winter months; 5 grams of D-ribose to one gallon of water
# Text: as §1, §2
# This plant was taken inside in October for the winter months.
smiles,measurement,setting,value
O=C[C@H](O)[C@H](O)[C@H](O)CO [D-ribose],branching,[1],increased branching compared to both the control and the MIRACLE-GRO fed plant
same,"blooming, first orchid",[2]; orchid which had not bloomed in six plus years,sparked two new stems full of blooms
same,"blooming, second orchid",[2]; orchid which had not bloomed in three plus years,showed the same results as subject one
same,blooming,[3],started to bloom early and sustained an abundance of continued blooms
same,blooming / flowering growth,[4],grew unusual growths that appeared to be some type of flowering appendage
same,blooming / flowering growth,[5],grew an unusual type of growth that appeared to be a flowering/seed mechanism on two different stems
same,blooming observed in treated plants,[6],Sustained blooming in many of the flowering plants
same,blooming,[7],continuously bloomed
